The values below come from US8080555B2, “Purine derivatives and their use for treatment of autoimmune diseases” (Prometic Biosciences Inc., priority 2005, dated 2011).

Assay [1] has as its system Freund's adjuvant-induced arthritis (AIA). In words: Freund's adjuvant-induced arthritis (AIA) in female Lewis rats. The format is in vivo. How it is done:
AIA was induced in female Lewis rats by the injection of lyophilized Mycobacterium butyricum suspended in mineral oil into the footpad. The development of arthritis was monitored over a 3 week period post-adjuvant injection. Inflammation peaks at day 3 following the adjuvant administration. Immune activation appears around day 14. Compounds were injected i.v. day-3, -2 and -1 pre-adjuvant injection and at day 10, 11 and 12 post-adjuvant injection. Body weight was recorded. The arthritis index, which is a measure of inflammation (edema), redness, and stiffness of the articulations, was used to monitor the development of the disease. The degree of arthritis was determined by measuring two perpendicular diameters of the ankles in the mediolateral and dorsoventral planes using a caliper. Joint circumference in millimeters is then calculated using a geometric formula. Both the incidence and severity of the arthritis was evaluated. Incidence is defined as the number of rats with clinical evidence of joint inflammation during the study period.
The effect of oral administration of compound 1 was determined following the protocol described above with the exception that compound 1 was orally administered at 50 mg/kg from day-3 to day 19. The positive control was indomethacin.

Assay [2] has as its system LPS-induced TNFα production in J774A-1 cells. In words: LPS-induced TNFα production in J774A-1 cells, TNFα by ELISA. Format: cell-based. Conditions: Mus musculus, J774.A1, 24 h, read-out: IC50 (μM), concentration which inhibits 50% of TNFα production. How it is done: The effect of compounds on TNFα production was measured by ELISA using J774-1 cells stimulated by lipopolysaccharide (LPS). J774-1 cells were cultured in the presence or absence of LPS and compound. Cells were cultured at 37° C. for 24 h and thereafter the supernatants were collected for the determination of the concentration of TNFα by ELISA as recommended by the manufacturer (BD Biosciences). Data was analyzed in a MICROSOFT® EXCEL® spreadsheet and the concentration of compound which inhibits 50% of TNFα production (IC50) was calculated using PRISM® software, as shown in Table 2.
(In general: In an ELISA, binding on a coated surface is turned into a signal by an enzyme label.)

In assay [3] the test system is oxazolone-induced delayed-type hypersensitivity (DTH). In words: Oxazolone-induced delayed-type hypersensitivity (DTH) in mice. The format is in vivo. The following applies: for Inflammation/Ear thickness (mm), Challenge 1 / Inflammation/Ear thickness (mm), Challenge 2: intravenous, 50 mg/kg day 0, 1 and 2; for Inflammation/Ear thickness (mm), Challenge 1: first challenge day 3; for Inflammation/Ear thickness (mm), Challenge 2: second challenge day 10. How it is done:
Compounds were tested for their ability to treat oxazolone-induced delayed-type hypersensitivity (DTH) in mice. On day 0, mice were sensitized with 100 μL of oxazolone in 5% acetone. On day 0, 1 and 2, mice were treated by intravenous administration of the vehicle (control) or methotrexate (MTX; positive control) or the compound at 50 mg/kg. Mice were challenged with an application of 50 μL of oxazolone on the surface of the right ear (first challenge, day 3; second challenge, day 10). Ear thickness was measured on day 4 to day 7, and on day 11 to 14. Redness and crust formation was also observed. Mice were sacrificed on day 14. TDTH (CD4) cells play an important role in regulating the intensity of the DTH response.
The effect of oral administration of compound 1 was determined following the protocol described above with the exception that compound 1 was orally administered at 50 or 150 mg/kg from day 0 to day 13. The positive control was hydrocortisone.

The target in assay [4] is T1, Fc portion of human IgG.
T1 construct: fused on or other part: Horseradish peroxidase chemically conjugated to the IgG (detection label)
In words: Competitive protein A binding ELISA (inhibition of binding of protein A to human IgG). Conditions: HRP-human IgG, assay in PBS, read-out: IC50 (μM) Assay in PBS, concentration which inhibits 50% binding of protein A. How it is done:
As described above, this assay evaluates the ability of the exemplified compounds to mimic protein A. Such compounds can bind to the Fc portion of human IgG as ascertained by the inhibition of binding of protein A to human IgG. The competitive protein A binding ELISA assay was performed on a 96-well plate MAXISORP® surface to enhance the binding of protein A to the bottom of the plate. The wells were coated with 100 μL of protein A (0.8 μg) and incubated overnight at 4° C. After incubation, unbound protein A was removed by three washes with phosphate buffer saline (PBS). The plate was then incubated with 100 μL/well of a 2% solution of bovine serum albumin (BSA) for 1 h at 37° C. to block nonspecific protein binding. After incubation, the plate was washed three times with PBS. 50 μL of compound or protein A, diluted in PBS or PBS-20% DMSO at appropriate concentration, were added to the wells followed by addition of 50 μL of peroxidase-conjugated human IgG (HRP-IgG). After 1 h incubation at 37° C., the plate was washed three times with PBS to remove unbound HRP-IgG. Bound HRP-IgG was detected by incubation with 100 μL of 2,2′-azino-di[3-ethylbenzthiazoline sulfonate] diammonium salt crystals (ABTS) solution for 20 min in the dark at room temperature. The plate was then read at 405 nm on a BIO-TEK® EL 800 Universal Microplate Reader. Data was analyzed in a MICROSOFT® EXCEL® spreadsheet and the concentration of compound which inhibits 50% binding of protein A (IC50) was calculated using PRISM® software, as shown in Table 1.

Counter-ions that a name gives are not always drawn. Where only a bound is given, the exact number is not on record here.

With `Nc1ccc(CCn2cnc3c(Nc4cccc(N)c4)ncnc32)cc1` [Compound 1, N-{9-[2-(4-aminophenyl)ethyl]-9H-purin-6-yl}benzene-1,3-diamine dihydrochloride], the “reduction in the severity of arthritis (inflammatory index)” value (from here on “reduction … (inflammatory index)”) in assay [1] (intravenous injection, FIG. 2) is given as “up to 25%”. Moreover, the “reduction … (inflammatory index)” value in assay [1] (oral administration, FIG. 3) is 10-30%. Moreover, the IC50 in assay [2] was more than 100 µM. Also, in assay [3] (intravenous administration), the “potency compared to methotrexate in DTH” value was “equipotent to methotrexate”; the “redness, crust formation, and ear swelling” value was “reduces”; the “reduction of the inflammation as seen by lower ear thickness” value is “significant reduction”. In addition, in assay [3], the “Inflammation/Ear thickness (mm), Challenge 1” value amounted to 0.19 ± 0.06 mm and the “Inflammation/Ear thickness (mm), Challenge 2” value is 0.56 ± 0.12 mm. The “reduction of the inflammation as seen by lower ear thickness” value in assay [3] (oral, 50 or 150 mg/kg day 0 to day 13, challenges 1 and 2, FIG. 1) is “significant reduction”. The IC50 in assay [4] is 1 µM.

For the molecule `Nc1ccc(CCn2cnc3c(Nc4cccc(N)c4)nc(N)nc32)cc1` [Compound 2, N6-(3-Amino-phenyl)-9-[2-(4-amino-phenyl)-ethyl]-9H-purine-2,6-diamine], the IC50 in assay [2] was found to be 76 µM; in assay [4] it was 13 µM.

On to `Nc1ccc(CCn2cnc3c(Nc4cccc(N)c4)nc(NCC4CC4)nc32)cc1` [Compound 3, N6-(3-Amino-phenyl)-9-[2-(4-amino-phenyl)-ethyl]-N2-cyclopropylmethyl-9H-purine-2,6-diamine], for which the IC50 was more than 50 µM in assay [2] and 0.7 µM in assay [4].

For `Nc1ccc(CCn2cnc3c(Nc4cccc(N)c4)nc(NCCCCCCO)nc32)cc1` [Compound 4, 6-{6-(3-Amino-phenylamino)-9-[2-(4-amino-phenyl)-ethyl]-9H-purin-2-ylamino}-hexan-1-ol], the IC50 is more than 50 µM in assay [2] and 4.8 µM in assay [4].

As for `Nc1ccc(CCn2cnc3c(Nc4cccc(N)c4)nc(NC4CC4)nc32)cc1` [Compound 5, N6-(3-Amino-phenyl)-9-[2-(4-amino-phenyl)-ethyl]-N2-cyclopropyl-9H-purine-2,6-diamine], the IC50 was 9.2 µM in assay [2] and 13 µM in assay [4].

Take `CC(C)(C)Nc1nc(Nc2cccc(N)c2)c2ncn(CCc3ccc(N)cc3)c2n1` [Compound 6, N6-(3-Amino-phenyl)-9-[2-(4-amino-phenyl)-ethyl]-N2-tert-butyl-9H-purine-2,6-diamine]: the IC50 in assay [2] came out at 2.3 µM; in assay [4], 1.8 µM.

For `Nc1ccc(Cn2cnc3c(Nc4cccc(N)c4)ncnc32)cc1` [Compound 7, N-[9-(4-Amino-benzyl)-9H-purin-6-yl]-benzene-1,3-diamine], the IC50 in assay [2] was more than 100 µM; in assay [4], 0.2 µM.

As to `Nc1ccc(CCn2cnc3c(Nc4cccc(N)c4)nc(NCCO)nc32)cc1` [Compound 8, 2-{6-(3-Amino-phenylamino)-9-[2-(4-amino-phenyl)-ethyl]-9H-purin-2-ylamino}-ethanol], the values for the IC50 in assay [2] and in assay [4] were 11 µM and 64 µM, respectively.

For `Nc1cccc(Nc2nc(F)nc3c2ncn3CCc2ccc(OCc3ccccc3)cc2)c1` [Compound 9, N-{9-[2-(4-Benzyloxy-phenyl)-ethyl]-2-fluoro-9H-purin-6-yl}-benzene-1,3-diamine], the IC50 is more than 50 µM in assay [2] and 7.1 µM in assay [4].

`CC(C)(C)CNc1nc(Nc2cccc(N)c2)c2ncn(CCc3ccc(N)cc3)c2n1` [Compound 10, N6-(3-Amino-phenyl)-9-[2-(4-amino-phenyl)-ethyl]-N2-(2,2-dimethyl-propyl)-9H-purine-2,6-diamine]: the IC50 in assay [2] was 5.3 µM; in assay [4] it was 6 µM.

Consider `CC(C)CNc1nc(Nc2cccc(N)c2)c2ncn(CCc3ccc(N)cc3)c2n1` [Compound 11, N6-(3-Amino-phenyl)-9-[2-(4-amino-phenyl)-ethyl]-N2-isobutyl-9H-purine-2,6-diamine], for which the IC50 worked out at 11 µM in assay [2] and 22 µM in assay [4].

For the molecule `Nc1cccc(CCn2cnc3c(Nc4cccc(N)c4)ncnc32)c1` [Compound 12, N-{9-[2-(3-Amino-phenyl)-ethyl]-9H-purin-6-yl}-benzene-1,3-diamine], the figures for the IC50 in assay [2] and in assay [4] were more than 50 µM and 52 µM, respectively.

Consider `Nc1ccc(CCn2cnc3c(Nc4cccc(N)c4)nc(NC4CCCC4)nc32)cc1` [Compound 13, N6-(3-Amino-phenyl)-9-[2-(4-amino-phenyl)-ethyl]-N2-cyclopentyl-9H-purine-2,6-diamine], for which the IC50 came out at 6.2 µM in assay [2] and 0.2 µM in assay [4].

Take `Nc1cccc(Nc2ncnc3c2ncn3CCc2ccc(F)cc2)c1` [Compound 14, N-{9-[2-(4-Fluoro-phenyl)-ethyl]-9H-purin-6-yl}-benzene-1,3-diamine]: the IC50 in assay [2] was more than 50 µM; in assay [4], 0.6 µM.

With `CN(Cc1cnc2nc(N)nc(N)c2n1)c1ccc(C(=O)N[C@@H](CCC(=O)O)C(=O)O)cc1` [Methotrexate, methotrexate, reference compound], in assay [1] (intravenous injection, FIG. 2), the “reduction … (inflammatory index)” value was 20%. In addition, in assay [3], the “Inflammation/Ear thickness (mm), Challenge 1” value was found to be 0.17 ± 0.04 mm and the “Inflammation/Ear thickness (mm), Challenge 2” value is 0.46 ± 0.17 mm.

Take `COc1ccc2c(c1)c(CC(=O)O)c(C)n2C(=O)c1ccc(Cl)cc1` [indomethacin, reference compound]: the “reduction … (inflammatory index)” value in assay [1] (oral administration, FIG. 3) is recorded as 10-40%.
